Reference: US10945986B2, “Treatment for ischemic stroke” (CHS Pharma, Inc., priority 2012, dated 2021)

Key:
[1] = system: middle cerebral artery occlusion (MCAO) stroke-induced brain infarction; experiment: MCAO rat stroke model, infarct size by TTC staining; assay type: in vivo, Sprague-Dawley rats; conditions: for reduction of ischemia-induced brain infarct size: DETC-MeSO 5.6 mg/kg i.p. 24 hr post MCAO/reperfusion, 8 animals; for effect of individual drug on ischemia-induced infarct size: individual drug at 1/10 dose (G-CSF 10 ug/kg; DETC-MeSO 0.56 mg/kg; sulindac 0.2 mg/kg), 24 hrs post MCAO
[2] = system: C/EBP homologues protein (CHOP); experiment: CHOP expression (Western blot) in primary neuronal cultures subjected to hypoxia and reoxygenation; assay type: cell-based; conditions: 24 hours hypoxia, 16 hours reoxygenation; densitometry vs actin
Procedure: (§1) Primary neuronal cultures were subjected to 24 hours of hypoxia followed by 16 hours of reoxygenation and cells were harvested for protein extraction and Western blot analysis for expression of CHOP. Levels of CHOP were quantified by densitometry and expressed as a percentage of the signal for actin control samples.

P-IRE-1 = P-IRE-1 expression (Western blot) in primary neuronal cultures subjected to hypoxia and reoxygenation; assay type: cell-based; conditions: 24 hours hypoxia, 16 hours reoxygenation; densitometry vs actin
Procedure: as §1, with “P-IRE-1.” for “CHOP.”, “P-IRE-1” for “CHOP”

Bcl-2 = experiment: Western blot of Bcl-2 in core and penumbra, MCAO model; assay type: in vivo, rat
Hsp27 = experiment: Western blot of Hsp27 in core and penumbra, MCAO model; assay type: in vivo, rat; conditions: DETC-MeSO treatment prior to MCAO surgery and reperfusion, N=8
Description: Western blotting on the core and the penumbra tissue of both hemispheres was employed for analysis of the expression of key proteins involved in apoptosis (Bcl-2), and cell protection and survival e.g., two heat shock proteins (HSP27, HSP70) and AKT.

pAKT = conditions: rat, in vivo
JNK = conditions: rat, in vivo
CHOP = experiment: Western blot of CHOP, MCAO model; assay type: in vivo, rat; conditions: G-CSF, Western blotting

| Molecule | infarct size as % of the area of the infarcts in the no-drug control group ([1]; 2 injections: 60 minutes before ischemia and 20 minutes before start of reperfusion, TTC) [%] | reduction of ischemia-induced brain infarct size ([1]; daily, 4 days) | reduction of ischemia-induced brain infarct size ([1]; daily, 8 days) | brain infarct size (morphological observation, TTC) ([1]; DETC-MeSO 5.6 mg/kg intraperitoneal 24 hr post MCAO/reperfusion, daily, both 4 and 8 days) | brain infarct size ([1]; DETC-MeSO 5.6 mg/kg one hour before MCAO surgery and reperfusion, continued 4 days, sacrificed 4th day, 1% TTC) | decrease in infarct size compared with the no-drug treated group ([1]; DETC-MeSO 5.6 mg/kg pre-MCAO, 4 days, at 6 mm from frontal pole, N=21) [%] | brain infarct size compared to the control group ([1]; DETC-MeSO 1-7 mg, two injections (1 hr before MCAO surgery, day 11), sacrificed 11th day, 1% TTC) | effect of individual drug on ischemia-induced infarct size ([1]; 8 days) | CHOP expression of hypoxia cells compared to DETC-MeSO-treated cells subjected to hypoxia [2] | P-IRE-1 expression of hypoxia cells compared to DETC-MeSO-treated cells subjected to hypoxia (P-IRE-1) | Bcl-2 expression vs non-treated control animals (Bcl-2; DETC-MeSO treatment prior to MCAO surgery and reperfusion, core and penumbra, N=8) | Hsp-27 expression vs non-treated control animals (Hsp27) | ischemia-induced brain infarct size vs non-treated control animals ([1]; G-CSF 50 μg/kg, 24 hours post ischemia) | infarct volume vs control group ([1]; G-CSF 50 μg/kg, 24 hours post ischemia, n=5) | percentage of infarct volume in entire brain vs control group ([1]; G-CSF 50 μg/kg, 24 hours post ischemia, n=5, P<0.05) | Bcl-2 expression (pro-survival/anti-apoptotic marker) (Bcl-2; rat, in vivo) | pAKT expression (pro-survival/anti-apoptotic marker) (pAKT) | JNK expression (pro-survival/anti-apoptotic marker) (JNK) | CHOP expression (pro-apoptotic protein) (CHOP) |
| --- | --- | --- | --- | --- | --- | --- | --- | --- | --- | --- | --- | --- | --- | --- | --- | --- | --- | --- | --- |
| CCN(CC)C(=O)[S+](C)[O-] (stereo not drawn) [DETC-MeSO, S-methyl-N, N-diethylthiolcarbamate sulfoxide] | 29 | 64+/−11% | 61+/−7% | significantly reduced | significantly reduced | 50 | significantly reduced | no significant effect | about double | 3-3.5 times | significantly increased | significantly increased | – | – | – | – | – | – | – |
| granulocyte colony-stimulating factor (protein, UniProt P09919 31-207, looked up, granulocyte colony-stimulating factor; a stem cell enhancer and facilitator) Granulocyte …: TPLGPASSLPQSFLLKCLEQVRKIQGDGAALQEKLVSECATYKLCHPEELVLLGHSLGIPWAPLSSCPSQALQLAGCLSQLHSGLFLYQGLLQALEGISPELGPTLDTLQLDVADFATTIWQQMEELGMAPALQPTQGAMPAFASAFQRRAGGVLVASHLQSFLEVSYRVLRHLAQP | – | – | – | – | – | – | – | no significant effect | – | – | – | – | greatly reduced | significantly reduced | significantly reduced | up-regulation | up-regulation | up-regulation | down-regulation |
